Consider nine molecules from article PMC6321439, “Structural Elucidation and Cytotoxicity of a New 17-Membered Ring Lactone from Algerian Eryngium campestre” (Molecules, 2018).

In brackets after ≈: the same amount, converted by molar mass. Like-named read-outs stand apart in the source and are kept apart here.

A word on the IC50: it is the concentration at which inhibition is half-maximal.

Data set [1] relates to Trypanosoma brucei rhodesiense, T. cruzi, Plasmodium falciparum and Leishmania donovani axenic and the infected macrophages amastigotes. The arrangement: method as in PMID 17922552. The note with it: cited from earlier work; for IC50: T. b. rhodesiense, T. cruzi, P. falciparum, L. donovani axenic and infected-macrophage amastigotes, read-out: IC50 on protozoan panel.
Data set [2] can be described thus: Cytotoxicity on WI38 cells. The format is cell-based. The note with it: human, WI38 normal human fibroblasts, mean ± SD from at least six values. The protocol: (§1) The crude extract and the newly identified pure compound (91.9%), campestrolide, were evaluated in vitro for their cytotoxicity on two mammalian cell lines: normal human fibroblasts (WI38) and cancerous macrophage-like murine cells. Their antiprotozoal activities were also investigated on Trypanosoma brucei brucei (Tbb. strain 427) bloodstream forms and Leishmania mexicana mexicana (Lmm. MHOM/BZ/84/BEL46) promastigotes. The tests were performed using stock solutions prepared in DMSO at 10 mg/mL. For the cytotoxicity assay, the samples were tested in eight serial 1.7-fold dilutions (150 µL transferred into 100 µL fresh medium) in the 96-well microtiter plates (concentration range: 0.7–25 µg/mL). The camptothecin (Sigma-Aldrich, St.-Louis, MO, USA) was used as a positive control with 5-fold dilutions (concentration range: 0.00032–25 µg/mL) from a 10 mg/mL DMSO stock solution. For the antiparasitic assays, the samples were tested in eight serial 2-fold dilutions (concentration range: 0.20–25 or 0.10–12 µg/mL on Leishmania and Trypanosoma, respectively). Suramine sodium and pentamidine isethionate salts (Sigma-Aldrich, St.-Louis, MO, USA) were used as a positive control with 3-fold dilutions (0.0046–10 µg/mL) from a stock solution of 2 mg/mL as well as amphotericin B. A maximum of 0.5% DMSO was previously verified to be non-toxic in all the biological assays. The IC50 values were determined using Microsoft Excel and GraphPad Prism 7.0 software (GraphPad, San Diego, CA, USA), based on a nonlinear regression. The selectivity index was calculated in comparison to the WI38 cytotoxicity to assess the therapeutic properties as antiparasitic or anticancer hits.

Data set [3] in a line: Cytotoxicity / anticancer activity on J774 cells. Format: cell-based. The note with it: mouse, J774 cancerous macrophage-like murine cells, mean ± SD from at least six values. How it is done:
as §1

In data set [4] the test system is Trypanosoma brucei brucei (bloodstream forms). The data set can be described thus: Antitrypanosomal activity in vitro. The format is cell-based. How it is done: as §1
For data set [5], the system named is Leishmania mexicana mexicana promastigotes. In words: Antileishmanial activity in vitro. The format is cell-based. The note with it: for IC50: Leishmania mexicana. The protocol:
as §1

A further data set has as its system all tested cells. The data set can be described thus: Summary over cytotoxicity and antiprotozoal assays. The format is cell-based. The note with it: read-out: IC50 on all tested cells except Trypanosoma. How it is done: as §1, with “Suramine sodium and pentamidine isethionate salts (Sigma-Aldrich, St.-Louis, MO, USA) were used as a positive control with 3-fold dilutions (0.0046–10 µg/mL) from a stock solution of 2 mg/mL as well as amphotericin B. A maximum of 0.5% DMSO was previously verified to be non-toxic in all the biological assays.” left out

On the set-up of data set [6]: method as in earlier work. As to conditions: cited from earlier work.
In data set [7] the test system is Trypanosoma brucei brucei. The arrangement: method as in PMID 22473703. The note with it: cited from earlier work.
Another data set deals with T. cruzi trypomastigotes. The arrangement: method as in PMID 22414103. The note with it: at 100 µg/mL; cited from earlier work.
Another data set concerns cruzain. The arrangement: method as in PMID 22414103. As to conditions: cited from earlier work.
Where [8] appears, read: read-out: Cytotoxicity IC50 ± SD WI38.
Where [9] appears, read: read-out: Cytotoxicity IC50 ± SD WI38 (µM for pure compound).
Setting [10] is: read-out: Cytotoxicity IC50 ± SD J774.
The mark [11] stands for this setting: read-out: Cytotoxicity IC50 ± SD J774 (µM for pure compound).
[12] abbreviates: Trypanosoma brucei, Tbb bloodstream forms, strain 427, read-out: Antiparasitic activity IC50 ± SD Tbb.
Where [13] appears, read: Trypanosoma brucei, Tbb bloodstream forms, strain 427, read-out: Antiparasitic activity IC50 ± SD Tbb (µM for pure compound).
Setting [14] is: Lmm promastigotes, read-out: Antiparasitic activity IC50 ± SD Lmm.
Setting [15] is: Lmm promastigotes, read-out: Antiparasitic activity IC50 ± SD Lmm (µM for pure compound).

`C=CC(C#CC#CC(O)CCCCCCCCC)OC(C)=O` (centres unmarked) [8-hydroxyheptadeca-1-ene-4,6-diyn-3-yl ethanoate]: in data set [1], the half-inhibitory concentration (IC50) was 100 to 2500 nM and the “SI compared on L6 rat skeletal myoblasts” value is above 10.
With `C=CC(C#CC#CC(O)CCCCCCCCCCOC(C)=O)OC(C)=O` (centres unmarked) [16-acetoxy-11-hydroxyoctadeca-17-ene-12,14-diynyl ethanoate], in data set [1], the half-maximal inhibitory concentration (IC50) is 100 to 2500 nM and the “SI compared on L6 rat skeletal myoblasts” value is reported as above 10.
Regarding `C=C[C@@H]1C#CC#CC/C=C\CCCCCCCC(=O)O1` [Compound 33, (Z)-17(R)-vinyloxacycloheptadeca-10-en-13,15-diyn-2-one], the IC50 in data set [2] (setting [8]) amounted to 5.2 ± 0.24 µg/mL; in [2] (setting [9]), 19.2 µM; in data set [3] (setting [10]), 4.84 ± 0.1 µg/mL; in data set [3] (setting [11]), 17.9 µM; in data set [4] (Tbb bloodstream forms, strain 427, read-out: Antiparasitic activity IC50 ± SD Tbb (µM for pure compound)) it was 2.17 µM; in [4] (setting [12]) it was 0.6 µg/mL. In addition, the IC50 in [4] (setting [13]) was 2.2 µM; in data set [5] (setting [14]), 3.43 ± 0.02 µg/mL; in data set [5] (setting [15]), 12.7 µM; in the data set on all tested cells, 12500 to 19500 nM. For the same molecule, the “Antiparasitic activity IC50 ± SD Tbb” value in [4] (Tbb bloodstream forms, strain 427) turned out to be 0.59 ± 0.08 µg/mL. Besides, the “Selectivity Index IC50 WI38/IC50 Parasite, Tbb” value in data set [4] (compared to WI38 cytotoxicity) is recorded as 8.9. Also, the “Selectivity Index IC50 WI38/IC50 Parasite, Lmm” value in [5] (compared to WI38 cytotoxicity) is listed as 1.5.
`C=C[C@H](O)C#CC#CC/C=C\CCCCCCC` [Falcarinol]: the “reported log P” value in [6] is given as 5.50. In [7] (T. b. brucei compared to HeLa), the “SI compared to HeLa cytotoxicity” value is given as 858. Moreover, in data set [7], the IC50 was 40 nM and the “IC50 on Trypanosoma brucei brucei” value is 0.01 µg/mL (≈ 0.0409 µM).
Consider `C[C@@H]1[C@H](O)[C@@H](C)/C=C/C=C/C=C/C=C/C=C/C=C/C=C/[C@H](O[C@@H]2O[C@H](C)[C@@H](O)[C@H](N)[C@@H]2O)C[C@@H]2O[C@](O)(C[C@@H](O)C[C@@H](O)[C@H](O)CC[C@@H](O)C[C@@H](O)CC(=O)O[C@H]1C)C[C@H](O)[C@H]2C(=O)O` [amphotericin B, reference compound], for which the half-maximal inhibitory concentration (IC50) in data set [5] (read-out: Antiparasitic activity IC50 ± SD Lmm (µM for pure compound)) was 0.09 ± 0.06 µM.
Consider `CC[C@@]1(O)C(=O)OCc2c1cc1n(c2=O)Cc2cc3ccccc3nc2-1` [camptothecin, reference compound], for which the IC50 in [2] (setting [8]) is 0.036 ± 0.022 µg/mL; in [2] (setting [9]) it was 0.103 µM; in data set [3] (setting [10]), 0.007 ± 0.005 µg/mL; in data set [3] (setting [11]), 0.021 µM.
Take `C=C1/C=C/[C@H](C(C)C)CC/C(C)=C/CC1` [germacrene D, Germacrene D]: the “growth inhibition of T. cruzi trypomastigotes” value with T. cruzi trypomastigotes is 61%. Moreover, in the data set on cruzain, the IC50 cruzain is reported as 22.1 µg/mL (≈ 108 µM).
On to `N=C(N)c1ccc(OCCCCCOc2ccc(C(=N)N)cc2)cc1` [pentamidine, reference compound], for which the concentration for half-maximal inhibition (IC50) in data set [5] (setting [14]) was found to be 0.057 ± 0.008 µg/mL; in data set [5] (setting [15]), 0.097 µM.
For the molecule `Cc1ccc(C(=O)Nc2ccc(S(=O)(=O)O)c3cc(S(=O)(=O)O)cc(S(=O)(=O)O)c23)cc1NC(=O)c1cccc(NC(=O)Nc2cccc(C(=O)Nc3cc(C(=O)Nc4ccc(S(=O)(=O)O)c5cc(S(=O)(=O)O)cc(S(=O)(=O)O)c45)ccc3C)c2)c1` [suramine, reference compound], the IC50 in data set [4] (setting [12]) was found to be 0.031 ± 0.012 µg/mL; in [4] (setting [13]), 0.022 µM.
